From ChEMBL document CHEMBL1155669, “Herbacic acid, a simple prototype of 5,5,5-trichloroleucine metabolites from the sponge Dysidea herbacea” (J Nat Prod, 2000)
Calls of active or inactive are those of the source.

Assays:
Assay type in all cases: functional, organism-based
Candida albicans [1] = experiment: Antifungal activity against fluconazole-resistant Candida albicans 96-489 at <100 ug/mL by microbroth dilution method
Nakaseomyces glabratus = experiment: Antifungal activity against Candida glabrata at <100 ug/mL by microbroth dilution method
Candida albicans [2] = experiment: Antifungal activity against Candida albicans ATCC 4503 at <100 ug/mL by microbroth dilution method
Pichia kudriavzevii = experiment: Antifungal activity against Candida krusei at <100 ug/mL by microbroth dilution method

Measured: Activity

C[C@@H](C/C=C/C(=O)N(C)[C@@H](C[C@H](C)C(Cl)(Cl)Cl)C(=O)O)C(Cl)(Cl)Cl
inactive: all assays above
